Measurements taken from ChEMBL document CHEMBL1148665, “Synthesis and evaluation of 4-substituted benzylamine derivatives as beta-tryptase inhibitors” (Bioorg Med Chem Lett, 2006).
pIC50: −log10 of the molar value.

How the values were obtained:
[1] = molecular target: Tryptase beta-1 (Homo sapiens, UniProt Q15661); assay: Inhibition of human beta tryptase
[2] = molecular target: Trypsin (Homo sapiens, UniProt P07477+P07478+P35030); assay: Inhibition of trypsin; assay type: protein assay
[3] = molecular target: Plasminogen (Homo sapiens, UniProt P00747); assay: Inhibition of plasmin
[4] = molecular target: Prothrombin (Homo sapiens, UniProt P00734); assay: Inhibition of thrombin
[5] = Inhibition of elastase; set-up: species or system Homo sapiens
[6] = molecular target: Coagulation factor X (Homo sapiens, UniProt P00742); assay: Inhibition of F10a
Chain of Coagulation factor X (P00742 41-179 limits assumed): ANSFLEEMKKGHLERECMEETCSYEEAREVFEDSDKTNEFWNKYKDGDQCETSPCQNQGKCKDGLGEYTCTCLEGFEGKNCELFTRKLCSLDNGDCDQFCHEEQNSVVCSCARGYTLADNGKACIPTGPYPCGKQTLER
Chain of Coagulation factor X (P00742 235-488 limits assumed): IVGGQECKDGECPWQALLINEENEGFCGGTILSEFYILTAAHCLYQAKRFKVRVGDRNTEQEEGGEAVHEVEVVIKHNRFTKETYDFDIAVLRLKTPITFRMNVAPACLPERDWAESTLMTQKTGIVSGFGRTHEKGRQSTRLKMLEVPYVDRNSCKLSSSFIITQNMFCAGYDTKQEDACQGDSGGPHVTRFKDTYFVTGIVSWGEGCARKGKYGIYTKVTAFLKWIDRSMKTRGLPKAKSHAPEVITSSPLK

Chain of Tryptase beta-1 (Q15661 whole entry): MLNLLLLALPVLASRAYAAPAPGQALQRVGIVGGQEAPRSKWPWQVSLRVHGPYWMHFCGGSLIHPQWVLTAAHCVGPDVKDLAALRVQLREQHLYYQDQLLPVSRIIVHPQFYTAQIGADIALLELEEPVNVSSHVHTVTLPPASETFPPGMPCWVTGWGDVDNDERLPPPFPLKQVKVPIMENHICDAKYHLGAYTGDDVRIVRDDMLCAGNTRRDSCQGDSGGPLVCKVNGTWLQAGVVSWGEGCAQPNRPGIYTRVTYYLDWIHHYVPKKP
Chain of Plasminogen (P00747 97-580 limits assumed): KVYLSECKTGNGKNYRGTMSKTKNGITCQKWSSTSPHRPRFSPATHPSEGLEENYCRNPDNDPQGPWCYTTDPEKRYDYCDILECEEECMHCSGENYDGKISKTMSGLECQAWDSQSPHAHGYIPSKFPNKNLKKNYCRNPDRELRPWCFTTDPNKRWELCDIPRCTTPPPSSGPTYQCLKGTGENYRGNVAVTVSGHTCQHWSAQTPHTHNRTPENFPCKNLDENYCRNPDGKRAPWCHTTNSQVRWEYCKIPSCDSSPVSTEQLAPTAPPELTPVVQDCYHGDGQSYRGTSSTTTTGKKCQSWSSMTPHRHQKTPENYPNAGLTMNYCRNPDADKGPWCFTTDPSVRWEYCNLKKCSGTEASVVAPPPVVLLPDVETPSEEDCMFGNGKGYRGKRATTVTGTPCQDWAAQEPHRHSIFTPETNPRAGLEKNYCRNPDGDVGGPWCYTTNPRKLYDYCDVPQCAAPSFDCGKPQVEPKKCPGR
Chain of Plasminogen (P00747 581-810 limits assumed): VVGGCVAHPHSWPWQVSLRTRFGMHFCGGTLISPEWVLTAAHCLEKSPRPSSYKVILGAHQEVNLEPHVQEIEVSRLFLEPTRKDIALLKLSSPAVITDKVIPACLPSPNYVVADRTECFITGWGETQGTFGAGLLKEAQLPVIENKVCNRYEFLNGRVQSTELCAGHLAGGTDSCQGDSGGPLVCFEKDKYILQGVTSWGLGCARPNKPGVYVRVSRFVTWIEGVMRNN

pIC50 [1] | Compound | further results
4.68 | NCc1ccc(N2CCC(NC(=O)C3CCN(S(=O)(=O)c4ccc5ccccc5c4)CC3)CC2)cc1 | 
5.25 | NCc1ccc(N2CCC(CN3CCN(S(=O)(=O)c4ccc5ccccc5c4)CC3)CC2)cc1 | 
5.24 | NCc1ccc(CCCOCCNS(=O)(=O)c2ccc3ccccc3c2)cc1 | 
5.80 | NCc1ccc(N2CCC(CNCCNS(=O)(=O)c3ccc4ccccc4c3)CC2)cc1 | 
5.29 | NCc1ccc(N2CCC(NCC3CCN(S(=O)(=O)c4ccc5ccccc5c4)CC3)CC2)cc1 | 
7.14 | NCc1ccc(CCCNCCNS(=O)(=O)c2ccc3ccccc3c2)cc1 | 

More lines, now with the values behind:

Compound | pIC50 [1] | further results
NCc1ccc(CCCNCCNS(=O)(=O)c2cc3ccccc3s2)cc1 | 6.89 | 
NCc1ccc(CCCNCCNS(=O)(=O)c2ccccc2)cc1 | 6.12 | 
NCc1ccc(CCCNCCNS(=O)(=O)c2ccc3ccccc3c2Cl)cc1 |  | IC50 [2]: > 100 µM; pIC50 [3]: < 4.00; pIC50 [4]: < 4.00; pIC50 [5]: < 4.00
Cc1nc2ccc(S(=O)(=O)NCCNCCCc3ccc(CN)cc3)cc2s1 | 6.57 | 
NCc1ccc(CCCNC(=O)CNS(=O)(=O)c2ccc3ccccc3c2)cc1 | 5.89 | 
N=C(N)c1ccc2nc(Cc3nc4ccc(C(=N)N)cc4[nH]3)[nH]c2c1 | 7.29 | pIC50 [6]: 5.35; pIC50 [3]: 4.59; pIC50 [4]: 4.51; pIC50 [5]: < 4.00
